Source: ChEMBL document CHEMBL1150696, “Griffonianone D, an isoflavone with anti-inflammatory activity from the root bark of Millettia griffoniana” (2003)
The source made the active and inactive calls. The calls are words filed in the database; no cut-off is given here.

Columns and labels:
Mus musculus [1] = assay: Antiinflammatory activity against PLA2-induced Swiss mouse paw edema at 5 mg/kg, ip administered 30 mins before PLA2 challenge; format: functional; details: route intraperitoneal
Mus musculus [2] = assay: Antiinflammatory activity against PLA2-induced Swiss mouse paw edema at 5 mg/kg, ip administered 30 mins before PLA2 challenge
Mus musculus [3] = assay: Antiinflammatory activity against carrageenan-induced Swiss mouse paw edema at 10 mg/kg, po; format: functional
Mus musculus [4] = assay: Antiinflammatory activity against TPA-induced Swiss mouse ear edema assessed as reduction in ear swelling at 0.5 mg/ear topically after 4 hrs relative to control; format: functional
Mus musculus [5] = assay: Antiinflammatory activity against PLA2-induced Swiss mouse paw edema at 5 mg/kg, ip administered 60 mins before PLA2 challenge; format: functional; details: route intraperitoneal
Mus musculus [6] = assay: Antiinflammatory activity against TPA-induced Swiss mouse ear edema assessed as reduction in ear swelling at 0.25 mg/ear topically after 4 hrs relative to control; format: functional
[7] = target: T1, Polyunsaturated fatty acid 5-lipoxygenase (Rattus norvegicus) (UniProt P12527); assay: Inhibition of 5-lipoxygenase in rat leukocytes assessed as inhibition of calcium ionophore A-23187/calcium-stimulated LTB4 production; format: cell-based
T1 sequence (whole entry): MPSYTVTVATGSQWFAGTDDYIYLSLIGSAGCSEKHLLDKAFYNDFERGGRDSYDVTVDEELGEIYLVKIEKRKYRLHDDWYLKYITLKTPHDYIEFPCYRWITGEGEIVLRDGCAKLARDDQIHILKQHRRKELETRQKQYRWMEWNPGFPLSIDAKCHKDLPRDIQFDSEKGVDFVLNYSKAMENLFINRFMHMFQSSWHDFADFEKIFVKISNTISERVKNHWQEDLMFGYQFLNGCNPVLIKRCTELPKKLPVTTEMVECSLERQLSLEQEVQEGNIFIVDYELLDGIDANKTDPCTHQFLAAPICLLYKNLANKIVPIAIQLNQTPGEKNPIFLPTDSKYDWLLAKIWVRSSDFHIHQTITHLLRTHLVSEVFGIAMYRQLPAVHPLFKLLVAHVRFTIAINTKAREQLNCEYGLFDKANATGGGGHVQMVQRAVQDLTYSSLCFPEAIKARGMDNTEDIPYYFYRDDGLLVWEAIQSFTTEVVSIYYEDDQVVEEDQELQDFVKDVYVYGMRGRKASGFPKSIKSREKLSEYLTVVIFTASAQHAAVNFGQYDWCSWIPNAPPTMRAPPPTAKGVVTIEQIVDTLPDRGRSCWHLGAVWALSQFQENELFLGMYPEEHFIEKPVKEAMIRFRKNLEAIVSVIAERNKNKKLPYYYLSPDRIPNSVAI

[8] = target: Prostaglandin G/H synthase 1 (Homo sapiens) (UniProt P23219); assay: Inhibition of cyclooxygenase 1 in human platelet assessed as 12-hydroxyheptadecatrienoic acid production
Chain of Prostaglandin G/H synthase 1 (Homo sapiens) (P23219 whole entry): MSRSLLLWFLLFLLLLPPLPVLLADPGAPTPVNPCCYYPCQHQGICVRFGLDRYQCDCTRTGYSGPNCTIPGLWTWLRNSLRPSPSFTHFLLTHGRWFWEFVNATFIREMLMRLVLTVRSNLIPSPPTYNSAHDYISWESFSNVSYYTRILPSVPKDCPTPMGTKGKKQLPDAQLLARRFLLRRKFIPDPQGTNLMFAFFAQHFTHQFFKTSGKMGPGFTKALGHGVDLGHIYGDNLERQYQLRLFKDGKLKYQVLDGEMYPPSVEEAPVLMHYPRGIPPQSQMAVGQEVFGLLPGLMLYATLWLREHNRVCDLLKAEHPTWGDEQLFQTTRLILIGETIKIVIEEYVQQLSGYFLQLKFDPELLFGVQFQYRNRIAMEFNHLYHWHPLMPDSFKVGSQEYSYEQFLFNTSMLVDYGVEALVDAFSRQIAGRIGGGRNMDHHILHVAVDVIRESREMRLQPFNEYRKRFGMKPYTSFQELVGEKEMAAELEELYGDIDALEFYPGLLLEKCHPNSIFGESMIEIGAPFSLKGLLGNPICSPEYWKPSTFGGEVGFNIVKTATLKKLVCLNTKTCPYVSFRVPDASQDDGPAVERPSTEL

| Activity [7] | Activity [8] | SMILES | inhibition in vivo at 5 mg/kg (Mus musculus [1]) [%] | inhibition in vivo at 5 mg/kg (Mus musculus [2]) [%] | inhibition in vivo at 10 mg/kg (Mus musculus [3]) [%] | inhibition (INH) (Mus musculus [4]) [%] | inhibition in vivo at 5 mg/kg (Mus musculus [5]) [%] | inhibition (INH) (Mus musculus [6]) [%] |
| --- | --- | --- | --- | --- | --- | --- | --- | --- |
|  |  | CN1CCC(=C2c3ccccc3C=Cc3ccccc32)CC1 [CYPROHEPTADINE] | 82 | 82 |  |  |  |  |
|  |  | COc1ccc2c(c1)c(CC(=O)O)c(C)n2C(=O)c1ccc(Cl)cc1 [INDOMETHACIN] |  |  | 60 | 82 |  |  |
| inactive | inactive | COc1ccc(-c2coc3cc(OC/C=C(\C)CCC(O)C(C)(C)O)ccc3c2=O)cc1 (centres undefined) [GRIFFONIANONE D] | 42 |  |  |  | 30 | 77 |
